These results are taken from US20260042764A1, “COMPOSITIONS AND METHODS FOR INHIBITION OF KRAS” (TheRas, Inc., priority 2022, published 2026).

In assay [1] the target is T1, Avi-KRAS G12R (1-169) GppNHp/RAF1 RBD-3xFLAG (52-151) (Homo sapiens, UniProt P01116, G12R).
T1 construct: Avi-KRAS G12R (1-169)
The assay can be described thus: Raf1-KRAS G12R-GppNHP disruption HTRF assay (Biological Example 1). The class given is binding. The essentials: (§1)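 Read-out is HTRF signal of the KRAS–RAF1 RBD complex, reported as percentage of activity relative to DMSO (100%). Protein mix and detection reagents each incubated 1 h at room temperature with 700 rpm shaking. Buffer: 50 mM Tris pH 7.5, 100 mM NaCl, 5 mM MgCl2, 0.1% BSA, 0.01% Tween, 10% DMSO.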
(In general: Time-resolved FRET reads energy transfer from a long-lived donor to a nearby acceptor.)

The subject of the next assay is SW620 cells (KRAS G12V). Put plainly: Cell-based pERK HTRF assay in SW620 cell (Biological Example 4). The conditions noted are these: pERK HTRF. As to the method: A pERK assay (Perkin Elmer) was used to determine the effectiveness of compounds in disrupting KRAS G12V protein/effector signaling in cells.
On Day 1, cells (SW620) were seeded into 96-well plates at 3×10^4 cells/well in 80 μL complete growth media (RPMI, 10% FBS).
On Day 2, cells were treated with compounds at 0.25% DMSO. The source plate was created with compounds diluted in media at 5-fold the final assay concentration. The compounds were run in a 9-point concentration curve starting at 1 μM, with a half-log dilution between concentrations. Twenty μL was transferred onto the cell plates (final volume in wells was 100 μL). Plates were harvested after 4 h incubation by aspirating media and adding kit-supplied 1x supplemented lysis buffer to all wells (50 μL per well). Plates were then placed on a plate shaker and incubated at 850 rpm for an additional 30 min.
Antibody mixture solution was prepared by diluting aliquoted d2 and Eu Cryptate antibodies 1:20 in kit supplied detection buffer and mixing the diluted antibodies solutions (1:1 v:v).
Samples were homogenized by pipetting up and down and then transferred (16 μL of cell lysates) from the 96-well cell culture plate to two wells of the HTRF 384-well detection plate containing the antibody solution. Plates were centrifuged (524 g for Imin) and allowed to incubate between 4 and 24 h at room temperature. […] Plates were centrifuged again (524 g for 1 min), then analyzed on the En Vision plate reader using the following settings: Excitation 320 nm, Bandwidth 75 nm; Emission 615 nm, Bandwidth 85 nm; Gain 100%; Flashes 100; Lag 60 μs.

Assay [2] concerns the target T2, Avi-KRAS G12V (1-169) GppNHp/RAF1 RBD-3xFLAG (52-151) (Homo sapiens, UniProt P01116, G12V).
T2 construct: Avi-KRAS G12V (1-169)
The assay can be described thus: Raf1-KRAS G12V-GppNHP disruption HTRF assay (Biological Example 1). The class given is binding. The essentials: as §1

The subject of the next assay is GP2d cells (KRAS G12D). The assay can be described thus: Cell-based pERK HTRF assay in GP2d cell (Biological Example 2). The conditions noted are these: GP2d (KRAS G12D) cells, pERK HTRF. Put shortly: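 Cells grown in DMEM with 10% FBS were exposed to compound for 60 min at 0.25% DMSO, using a 9-point half-log series starting at 1 μM or 100 nM. Lysates were then mixed with d2 and Eu cryptate antibodies for 4–24 h at room temperature, and pERK was read by HTRF.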

Assay [3] deals with T3, Avi-KRAS WT (1-169) GppNHp/RAF1 RBD-3xFLAG (52-151) (Homo sapiens, UniProt P01116).
T3 construct: Avi-KRAS WT (1-169)
T3 sequence (P01116 1-169 isoform P01116-2): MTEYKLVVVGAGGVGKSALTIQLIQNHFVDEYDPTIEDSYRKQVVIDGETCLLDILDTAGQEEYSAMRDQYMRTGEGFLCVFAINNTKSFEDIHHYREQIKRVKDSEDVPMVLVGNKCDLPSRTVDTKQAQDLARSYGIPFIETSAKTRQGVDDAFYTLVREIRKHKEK
Put plainly: Raf1-KRAS WT-GppNHP disruption HTRF assay (Biological Example 1). The class given is binding. The essentials:
as §1

Assay [4] deals with T4, Avi-KRAS G12D (1-169) GppNHp/RAF1 RBD-3xFLAG (52-151) (Homo sapiens, UniProt P01116, G12D).
T4 construct: Avi-KRAS G12D (1-169)
T4 sequence (P01116 1-169 isoform P01116-2 G12D): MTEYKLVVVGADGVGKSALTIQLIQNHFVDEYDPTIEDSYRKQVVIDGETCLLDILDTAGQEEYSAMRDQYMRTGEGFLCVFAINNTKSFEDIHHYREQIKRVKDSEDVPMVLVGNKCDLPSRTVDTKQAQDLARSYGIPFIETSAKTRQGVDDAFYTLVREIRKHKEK
The assay can be described thus: Raf1-KRAS G12D-GppNHP disruption HTRF assay (Biological Example 1). The class given is binding. The essentials:
as §1

Setting [5] is: Homo sapiens, SW-620, SW620 (KRAS G12V) cells.

A value given as a limit tells only on which side of the number the result lay.

T1 sequence (P01116 1-169 isoform P01116-2 G12R): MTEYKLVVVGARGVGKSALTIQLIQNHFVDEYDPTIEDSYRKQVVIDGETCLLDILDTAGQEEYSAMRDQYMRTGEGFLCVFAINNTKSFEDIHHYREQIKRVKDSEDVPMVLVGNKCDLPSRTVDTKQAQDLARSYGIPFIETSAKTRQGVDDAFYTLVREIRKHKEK
T2 sequence (P01116 1-169 isoform P01116-2 G12V): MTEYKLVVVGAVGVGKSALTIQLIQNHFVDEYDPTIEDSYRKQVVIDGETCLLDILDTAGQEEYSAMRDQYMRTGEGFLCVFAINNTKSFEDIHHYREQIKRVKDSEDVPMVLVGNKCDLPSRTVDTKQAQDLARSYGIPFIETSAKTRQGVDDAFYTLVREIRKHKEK

As for `CN(c1nc(OC[C@@]23CCCN2C[C@H](F)C3)nc2c(F)c(-c3ccc(F)c4sc(N)c(C#N)c34)c(C(F)(F)F)cc12)[C@]1(CC#N)C[C@@H](O)C1` (atropisomer, axis not shown) [Compound 254], the IC50 (usually the concentration at which inhibition is half-maximal) in assay [1] (KRAS G12R, GppNHp-loaded, Table 11) is 1000 to 10000 nM; in the assay on SW620 cells (KRAS G12V) (SW620 (KRAS G12V) cells), over 1000 nM; in assay [2] (KRAS G12V, GppNHp-loaded, Table 11), 1000 to 10000 nM; in the assay on GP2d cells (KRAS G12D) it was 100 to 1000 nM; in assay [3] (KRAS WT, GppNHp-loaded, Table 11) it was 100 to 1000 nM; in assay [4] (KRAS G12D, GppNHp-loaded, Table 11), 100 to 1000 nM.
In the case of `C[C@@H]1[C@H](N(C)c2nc(OC[C@@]34CCCN3C[C@H](F)C4)nc3c(F)c(-c4ccc(F)c5sc(N)c(C#N)c45)c(C(F)(F)F)cc23)CCN1C(=O)C1CC1` (atropisomer, axis not shown) [Compound 334], the IC50 is over 10000 nM in assay [1] (KRAS G12R-GppNHp/RAF1 RBD HTRF); 100 to 1000 nM in the assay on SW620 cells (KRAS G12V) (SW620 (KRAS G12V) cells); over 10000 nM in assay [2] (KRAS G12V-GppNHp/RAF1 RBD HTRF); 100 to 1000 nM in the assay on GP2d cells (KRAS G12D); over 10000 nM in assay [3] (KRAS WT-GppNHp/RAF1 RBD HTRF); over 10000 nM in assay [4] (KRAS G12D-GppNHp/RAF1 RBD HTRF).
As to `CCC(=O)N1CC[C@@H](N(C)c2nc(OC[C@]34CCCN3C[C@H](F)C4)nc3c(F)c(-c4ccc(F)c5sc(N)c(C#N)c45)c(C(F)(F)F)cc23)[C@H]1C` (atropisomer, axis not shown) [Compound 336], the IC50 was over 10000 nM in assay [1] (KRAS G12R-GppNHp/RAF1 RBD HTRF); 100 to 1000 nM in the assay with SW620 cells (KRAS G12V) (setting [5]); over 10000 nM in assay [2] (KRAS G12V-GppNHp/RAF1 RBD HTRF); 100 to 1000 nM with GP2d cells (KRAS G12D) (GP2d); 1000 to 10000 nM in assay [3] (KRAS WT-GppNHp/RAF1 RBD HTRF); 1000 to 10000 nM in assay [4] (KRAS G12D-GppNHp/RAF1 RBD HTRF).
Take `CCN(c1nc(OC[C@@]23CCCN2C[C@H](F)C3)nc2c(F)c(-c3ccc(F)c4sc(N)c(C#N)c34)c(C(F)(F)F)cc12)[C@H]1CCS(=O)(=O)C1` (atropisomer, axis not shown) [Compound 491]: the IC50 in assay [1] (KRAS G12R-GppNHp/RAF1 RBD HTRF) is over 10000 nM; in the assay with SW620 cells (KRAS G12V) (SW620 (KRAS G12V) cells) it was 100 to 1000 nM; in assay [2] (KRAS G12V-GppNHp/RAF1 RBD HTRF), over 10000 nM; in the assay on GP2d cells (KRAS G12D) it was 100 to 1000 nM; in assay [3] (KRAS WT-GppNHp/RAF1 RBD HTRF), 1000 to 10000 nM; in assay [4] (KRAS G12D-GppNHp/RAF1 RBD HTRF), 1000 to 10000 nM.
`CCN(c1nc(OC[C@@]23CCCN2C[C@H](F)C3)nc2c(F)c(-c3ccc(F)c4sc(N)c(C#N)c34)c(C(F)(F)F)cc12)[C@H]1C[C@H](C)N(C(=O)N(C)C)C1` (atropisomer, axis not shown) [Compound 521]: the IC50 in assay [1] (KRAS G12R-GppNHp/RAF1 RBD HTRF) is under 100 nM; in the assay with SW620 cells (KRAS G12V) (setting [5]) it was under 100 nM; in assay [2] (KRAS G12V-GppNHp/RAF1 RBD HTRF), under 100 nM; with GP2d cells (KRAS G12D) (GP2d), under 100 nM; in assay [3] (KRAS WT-GppNHp/RAF1 RBD HTRF), 100 to 1000 nM; in assay [4] (KRAS G12D-GppNHp/RAF1 RBD HTRF) it was under 100 nM.
Take `CCN(c1nc(OC[C@@]23CCCN2C[C@H](F)C3)nc2c(F)c(-c3ccc(F)c4sc(N)c(C#N)c34)c(C(F)(F)F)cc12)[C@@H]1C[C@@H](C)N(C(=O)N(C)C)C1` (atropisomer, axis not shown) [Compound 525]: the IC50 in assay [1] (KRAS G12R-GppNHp/RAF1 RBD HTRF) is 1000 to 10000 nM; in the assay with SW620 cells (KRAS G12V) (setting [5]), under 100 nM; in assay [2] (KRAS G12V-GppNHp/RAF1 RBD HTRF) it was 1000 to 10000 nM; with GP2d cells (KRAS G12D) (GP2d), under 100 nM; in assay [3] (KRAS WT-GppNHp/RAF1 RBD HTRF) it was 100 to 1000 nM; in assay [4] (KRAS G12D-GppNHp/RAF1 RBD HTRF), 1000 to 10000 nM.
Consider `CCN(c1nc(OC[C@@]23CCCN2C[C@H](F)C3)nc2c(F)c(-c3ccc(F)c4sc(N)c(C#N)c34)c(C(F)(F)F)cc12)[C@@H]1C[C@@H](C)N(C(=O)OC)C1` (atropisomer, axis not shown) [Compound 526], for which the IC50 in assay [1] (KRAS G12R-GppNHp/RAF1 RBD HTRF) is 100 to 1000 nM; with SW620 cells (KRAS G12V) (setting [5]), under 100 nM; in assay [2] (KRAS G12V-GppNHp/RAF1 RBD HTRF), 100 to 1000 nM; in the assay with GP2d cells (KRAS G12D) (GP2d), under 100 nM; in assay [3] (KRAS WT-GppNHp/RAF1 RBD HTRF) it was 100 to 1000 nM; in assay [4] (KRAS G12D-GppNHp/RAF1 RBD HTRF), 100 to 1000 nM.
Consider `C[C@@H]1Cn2nncc2CN1c1nc(OC[C@@]23CCCN2C[C@H](F)C3)nc2c(F)c(-c3ccc(F)c4sc(N)c(C#N)c34)c(C(F)(F)F)cc12` (atropisomer, axis not shown) [Compound 530], for which the IC50 is 100 to 1000 nM in assay [1] (KRAS G12R-GppNHp/RAF1 RBD HTRF); under 100 nM in the assay with SW620 cells (KRAS G12V) (setting [5]); 100 to 1000 nM in assay [2] (KRAS G12V-GppNHp/RAF1 RBD HTRF); under 100 nM in the assay on GP2d cells (KRAS G12D) (GP2d); 100 to 1000 nM in assay [3] (KRAS WT-GppNHp/RAF1 RBD HTRF); 100 to 1000 nM in assay [4] (KRAS G12D-GppNHp/RAF1 RBD HTRF).
